# Target: T1, recombinant human Muscarinic M1 receptor (Homo sapiens, UniProt P11229)
# T1 construct: expressed in transfected cells
# T1 sequence (P11229 1-460): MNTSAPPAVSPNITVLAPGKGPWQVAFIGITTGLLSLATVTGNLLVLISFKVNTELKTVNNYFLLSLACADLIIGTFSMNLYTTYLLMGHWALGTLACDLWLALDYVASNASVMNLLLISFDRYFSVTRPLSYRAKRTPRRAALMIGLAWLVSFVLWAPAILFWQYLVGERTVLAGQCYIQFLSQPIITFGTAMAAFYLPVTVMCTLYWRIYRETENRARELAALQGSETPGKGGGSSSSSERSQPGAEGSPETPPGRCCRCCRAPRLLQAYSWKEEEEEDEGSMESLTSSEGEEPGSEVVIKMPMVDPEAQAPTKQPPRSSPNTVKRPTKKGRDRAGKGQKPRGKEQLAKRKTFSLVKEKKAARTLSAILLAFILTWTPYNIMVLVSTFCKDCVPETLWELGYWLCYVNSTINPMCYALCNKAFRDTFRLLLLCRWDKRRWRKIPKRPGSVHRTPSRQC
# Assay: Allosteric potency EC50 for Muscarinic M1 receptor, CHO pCRE-Luc reporter assay with EC20 of acetylcholine
# Type: cell-based
# Conditions: CHO cells, in presence of EC20 of acetylcholine, 4 hours
# Description: Determination of Allosteric Potency EC50 Values for Muscarinic M1 Receptor:
# A stable CHO cell line expressing recombinant human Muscarinic M1 receptor and pCRE-Luc reporter system was used for cell-based assay. The assay offers a non-radioactive based approach to determine binding of a compound to GPCRs. In this specific assay, the level of intracellular cyclic AMP which is modulated by activation or inhibition of the receptor is measured. The recombinant cells harbor luciferase reporter gene under the control of cAMP response element.
# The above cells were grown in 96 well clear bottom white plates in Hams F12 medium containing 10% fetal bovine serum (FBS). Prior to the addition of compounds or standard agonist, cells were serum starved overnight. Increasing concentrations of test compounds were added along with EC20 of acetylcholine in OptiMEM medium to the cells. The incubation was continued at 37° C. in CO2 incubator for 4 hours. Medium was removed and cells were washed with phosphate buffered saline. The cells were lysed and luciferase activity was measured in a Luminometer. Luminescence counts in each concentrations of test item were normalized to the acetylcholine induced maximum response and the data was analyzed using Graphpad software. EC50 values of the compounds were defined as the concentration required in stimulating the luciferase activity by 50% in presence of EC20 of acetylcholine.
row,EC50,SMILES
1,10000 nM,"O=C(NC1CCOCC1)c1cc(Cc2ccc(Cl)nc2)c2cccnn12 [Example 17, N-(Tetrahydropyran-4-yl)-5-(2-chloropyridin-5-ylmethyl)-pyrrolo[1,2-b]pyridazine-7-carboxamide]"
2,1760 nM,"O=C(NC1CCOCC1)c1cc(Cc2ccc(-n3cccn3)cc2)c2cccnn12 [Example 22, N-(Tetrahydropyran-4-yl)-5-(4-pyrazol-1-ylbenzyl)-pyrrolo[1,2-b]pyridazine-7-carboxamide]"
3,1650 nM,"O=C(NC1CCOCC1O)c1cc(Cc2cccc(F)c2)c2cccnn12 (stereo not shown) [Example 30, N-(3-Hydroxytetrahydropyran-4-yl)-5-(3-fluorobenzyl)-pyrrolo[1,2-b]pyridazine-7-carboxamide]"
4,463 nM,"O=C(NC1CCOCC1O)c1cc(Cc2ccnc(Cl)c2)n2cccc(F)c12 (stereo not shown) [Example 46, N-(3-Hydroxytetrahydropyran-4-yl)-3-(2-chloropyridine-4-ylmethyl)-8-fluoroindolizine-1-carboxamide]"
5,1530 nM,"Cn1cc(-c2cccc(Cc3cc(C(=O)N[C@H]4CCCC[C@@H]4O)n4ncccc34)c2)cn1 [Example 38, N-(cis-1S,2S-2-Hydroxycyclohexyl)-5-[3-(1-methyl-1H-pyrazol-4-yl)-benzyl]-pyrrolo[1,2-b]pyridazine-7-carboxamide]"
6,236 nM,"O=C(N[C@H]1CCCC[C@@H]1O)c1cc(Cc2ccc(Br)cc2)n2cccc(F)c12 [Example 41, N-(cis-1S,2S-2-Hydroxycyclohexyl)-3-(4-bromobenzyl)-8-fluoroindolizine-1-carboxamide]"
7,1340 nM,"COc1cc(Cc2cc(C(=O)N[C@H]3CCCC[C@@H]3O)n3ncccc23)ccc1F [Example 12, N-(cis-1S,2S-2-Hydroxycyclohexyl)-5-(4-fluoro-3-methoxybenzyl)-pyrrolo[1,2-b]pyridazine-7-carboxamide]"
8,863 nM,"O=C(N[C@H]1CCCC[C@@H]1O)c1cc(Cc2ccc(F)cc2)c2cccnn12 [Example 8, N-(cis-1S,2S-2-Hydroxycyclohexyl)-5-(4-fluorobenzyl)-pyrrolo[1,2-b]pyridazine-7-carboxamide]"
9,119 nM,"O=C(N[C@H]1CCCC[C@@H]1O)c1cc(Cc2ccc(-c3cscn3)cc2)c2cccnn12 [Example 23, N-(cis-1S,2S-2-Hydroxycyclohexyl)-5-(4-thiazol-4-ylbenzyl)-pyrrolo[1,2-b]pyridazine-7-carboxamide]"
10,1010 nM,"O=C(N[C@H]1CCCC[C@@H]1O)c1cc(Cc2ccnc(Br)c2)c2cccnn12 [Example 29, N-(cis-1S,2S-2-Hydroxycyclohexyl)-5-(2-bromopyridin-4-ylmethyl)-pyrrolo[1,2-b]pyridazine-7-carboxamide]"
11,1130 nM,"O=C(N[C@H]1CCCC[C@@H]1O)c1cc(Cc2ccccc2)n2cccc(F)c12 [Example 42, N-(cis-1S,2S-2-Hydroxycyclohexyl)-3-benzyl-8-fluoroindolizine-1-carboxamide]"
12,3190 nM,"O=C(N[C@H]1CCCC[C@@H]1O)c1cc(Cc2ccc(-c3cscn3)cc2)n2cccc(F)c12 [Example 45, N-(cis-1S,2S-2-Hydroxycyclohexyl)-3-(4-thiazol-4-yl-benzyl)-8-fluoroindolizine-1-carboxamide]"
13,1300 nM,"O=C(N[C@H]1CCCC[C@@H]1O)c1cc(Cc2ccnc(Cl)c2)c2cccnn12 [Example 11, N-(cis-1S,2S-2-Hydroxycyclohexyl)-5-(2-chloro-pyridin-4-ylmethyl)-pyrrolo[1,2-b]pyridazine-7-carboxamide]"

# Reference: patent US11234979B2, “Heteroaryl compounds as muscarinic M1 receptor positive allosteric modulators” (SUVEN LIFE SCIENCES LIMITED, priority 2017, dated 2022)
